The results in this text go back to US20150233949A1, “DETECTION AND MODULATION OF CYTOCHROME C ACETYLATION” (President and Fellows of Harvard College, priority 2008, published 2015).

Data set [1] deals with primary cerebellar granule neurons. The data set can be described thus: Cell survival measurement (MTT assay) after kainic acid treatment. The format is cell-based, mouse. To be noted: T3-/- versus wild-type neurons; 50 uM kainic acid, 4 hr and 24 hrs; FIG. 9. The protocol: SH-SY5Y cells were cultured in Dulbecco's Modified Eagle's Medium (DMEM) supplemented with 10% Fetal Calf Serum (FCS). SH-SY5Y cells were transfected with Lipofectamine 2000 (Invitrogen, Carlsbad, Calif.). Granule neuron cultures were prepared from cerebella of postnatal day 5 mouse pups. Neurons were placed on polyornithine-coated 96-well plates and grown in Basal Medium Eagle (BME) (Sigma, St. Louis, Mo.) supplemented with 10% calf serum (Hyclone Laboratories, Logan, Utah), 25 mM KCl, 2 mM glutamine, penicillin, and streptomycin. One day after cultures were prepared they were treated with 10 μM of the antimitotic agent cytosine-D-arabinofuranoside (Sigma, St. Louis, Mo.) to prevent the proliferation of non-neuronal cells.
The resistance to kainic acid of primary granule neurons derived from WT and SIRT3 null mice was quantified as the percentage of live cells after a 4 hr and 24 hrs treatment with 50 uM Kainic acid. The quantitation of dead cells upon Kainic acid treatment was carried out using the MTT assay was performed using CellTiter 96 Nonradioactive Cell Proliferation Assay kit (Promega).

The subject of another data set is 129/Sv mice. Nature of the data set: Seizure induction by kainic acid injection in mice. The following applies: 30 mg/kg KA i.p.; WT and SIRT3 KO, female and male mice. The format is in vivo, mouse. As for the experimental part: Littermate 129/Sv (6-8 weeks old) mice were used for the studies. SIRT3−/− mice were in a 129/sv background. Mice were housed under controlled temperature (25° C.) and light, and fed normal chow.
(§1) To induce seizures, both WT female (n=6) and KO female (n=5) mice and WT male (n=5) and KO male (n=6) mice were injected i.p. with 30 mg/kg KA.

For data set [2], the system named is hippocampus and amygdala neurons. The data set can be described thus: Loss of hippocampus and amygdala neurons after kainic acid injections. The class given is in vivo, mouse. To be noted: FIG. 14. The protocol: as §1
The effect of kainic acid injections on memory function was also investigated by examining hippocampus and amygdala neurons.

For the molecule `C=C(C)[C@H]1CN[C@H](C(=O)O)[C@H]1CC(=O)O` [kainic acid], in data set [1], the cell survival entry is listed as “reduced cell survival”. Moreover, the seizures entry with 129/Sv mice is “caused seizures in all mice”. The “loss of hippocampus and amygdala neurons” value in data set [2] is “loss of hippocampus and amygdala neurons”.
